EC50 data for 24 compounds are collected here from patent publication US20250122218A1, “MODULATORS OF CYSTIC FIBROSIS TRANSMEMBRANE CONDUCTANCE REGULATOR” (Vertex Pharmaceuticals Incorporated, priority 2022, published 2025).

The structures appear in SMILES notation. A value given as a limit tells only on which side of the number the result lay.

For this experiment, the target named is T1, CFTR in F508del/MF-HBE cells (Homo sapiens, UniProt P13569, DEL508-508).
T1 construct: human bronchial epithelial (HBE) cells derived from CF subjects heterozygous for F508del and a minimal function CFTR mutation; endogenous in cells; host or cells: primary human bronchial epithelial cells from CF subjects (F508del/MF-HBE)
Briefly: Ussing chamber assay of CFTR-mediated short-circuit currents (identification of potentiator compounds). It counts as cell-based. Particulars: potentiator incubated 18-24 hours at 37° C. in combination with 10 μM corrector, in the presence of 20% human serum, CFTR-mediated ISC. The procedure, abridged: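 F508del/MF-HBE cultures were preincubated 18-24 h at 37° C with potentiator plus 10 μM of a fixed corrector compound in 20% human serum; compounds were kept present during measurement. ISC was recorded under voltage clamp (0 mV, 37° C, amiloride apical) and taken as the 20 μM forskolin peak minus the current after inhibitor cocktail.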

T1 sequence (P13569 with tags, fused parts or gaps DEL508-508): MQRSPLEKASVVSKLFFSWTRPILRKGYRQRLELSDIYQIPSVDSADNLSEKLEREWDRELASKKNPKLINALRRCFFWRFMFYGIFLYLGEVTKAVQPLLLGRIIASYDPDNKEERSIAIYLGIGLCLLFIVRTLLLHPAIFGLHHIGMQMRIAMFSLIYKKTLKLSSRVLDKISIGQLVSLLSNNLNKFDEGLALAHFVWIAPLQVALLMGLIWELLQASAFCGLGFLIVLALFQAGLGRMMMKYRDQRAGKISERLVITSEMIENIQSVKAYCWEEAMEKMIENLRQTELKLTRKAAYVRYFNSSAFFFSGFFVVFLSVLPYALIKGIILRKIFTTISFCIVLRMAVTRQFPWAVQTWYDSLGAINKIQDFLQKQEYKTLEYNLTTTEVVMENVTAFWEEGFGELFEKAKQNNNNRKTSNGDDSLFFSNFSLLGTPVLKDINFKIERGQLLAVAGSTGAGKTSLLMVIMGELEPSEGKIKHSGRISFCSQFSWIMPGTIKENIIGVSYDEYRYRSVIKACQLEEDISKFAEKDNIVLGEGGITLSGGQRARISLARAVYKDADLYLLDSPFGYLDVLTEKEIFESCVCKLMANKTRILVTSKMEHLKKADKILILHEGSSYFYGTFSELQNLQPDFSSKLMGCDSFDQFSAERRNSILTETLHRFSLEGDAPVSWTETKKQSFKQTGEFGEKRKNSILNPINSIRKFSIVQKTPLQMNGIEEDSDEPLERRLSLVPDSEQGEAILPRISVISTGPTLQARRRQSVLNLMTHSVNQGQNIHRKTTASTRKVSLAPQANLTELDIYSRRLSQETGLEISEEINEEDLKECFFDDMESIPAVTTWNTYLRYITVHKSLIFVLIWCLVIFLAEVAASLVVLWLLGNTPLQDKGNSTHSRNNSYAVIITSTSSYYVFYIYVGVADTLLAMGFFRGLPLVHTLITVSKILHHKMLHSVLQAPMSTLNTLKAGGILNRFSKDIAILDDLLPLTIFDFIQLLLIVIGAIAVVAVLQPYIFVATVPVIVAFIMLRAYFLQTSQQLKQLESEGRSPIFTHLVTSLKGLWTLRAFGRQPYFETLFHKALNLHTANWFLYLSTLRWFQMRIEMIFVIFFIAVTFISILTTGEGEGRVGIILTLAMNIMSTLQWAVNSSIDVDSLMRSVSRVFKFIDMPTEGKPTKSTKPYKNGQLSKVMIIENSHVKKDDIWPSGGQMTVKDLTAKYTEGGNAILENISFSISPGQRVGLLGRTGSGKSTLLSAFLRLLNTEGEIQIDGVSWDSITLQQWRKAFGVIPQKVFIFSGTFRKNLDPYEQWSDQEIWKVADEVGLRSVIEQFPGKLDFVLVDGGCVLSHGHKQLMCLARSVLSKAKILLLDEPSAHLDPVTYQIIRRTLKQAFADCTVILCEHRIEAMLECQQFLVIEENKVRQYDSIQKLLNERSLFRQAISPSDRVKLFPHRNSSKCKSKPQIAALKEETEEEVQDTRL

The term EC50 denotes the midpoint of the concentration-response curve. Regarding `Nc1cc(C(F)(F)F)c2nc1-c1nnc(o1)C(O)(C(F)(F)F)CCCCCN(CC(F)(F)F)C2=O` (single isomer, unassigned) [Compound 206, 17-amino-6-hydroxy-12-(2,2,2-trifluoroethyl)-6,15-bis(trifluoromethyl)-19-oxa-3,4,12,18-tetrazatricyclo [12.3.1.12,5] nonadeca-1(18),2,4,14,16-pentaen-13-one], the EC50 was less than 0.5 µM.

As for `Nc1cc(C(F)(F)F)c2nc1-c1nnc(o1)C(O)(C(F)(F)F)CCCCCN(CC(F)(F)F)C2=O` (single isomer, unassigned) [Compound 207, 17-amino-6-hydroxy-12-(2,2,2-trifluoroethyl)-6,15-bis(trifluoromethyl)-19-oxa-3,4,12,18-tetrazatricyclo [12.3.1.12,5] nonadeca-1(18),2,4,14,16-pentaen-13-one], the EC50 was greater than 1 µM.

For `CC(C)(C)c1ccc(C2(N3CCCCCC(O)(C(F)(F)F)C4=NN=C(O4)c4nc(c(C(F)(F)F)cc4N)C3=O)CC2)cc1` (single isomer, unassigned) [Compound 227, 17-amino-12-[1-(4-tert-butylphenyl)cyclo-propyl]-6-hydroxy-6,15-bis(trifluoromethyl)-19-oxa-3,4,12,18-tetrazatricyclo [12.3.1.12,5] nonadeca-1(18),2,4,14,16-pentaen-13-one], the EC50 was less than 0.5 µM.

Take `CC(C)(C)c1ccc(C2(N3CCCCCC(O)(C(F)(F)F)C4=NN=C(O4)c4nc(c(C(F)(F)F)cc4N)C3=O)CC2)cc1` (single isomer, unassigned) [Compound 228, 17-amino-12-[1-(4-tert-butylphenyl)cyclo-propyl]-6-hydroxy-6,15-bis(trifluoromethyl)-19-oxa-3,4,12,18-tetrazatricyclo [12.3.1.12,5] nonadeca-1(18),2,4,14,16-pentaen-13-one]: the concentration giving a half-maximal response (EC50) is less than 0.5 µM.

For the compound `CC(C)CN1CCCCC(O)(C(F)(F)F)C2=NN=C(O2)c2nc(c(C(F)(F)F)cc2N)C1=O` (single isomer, unassigned) [Compound 232, 16-amino-6-hydroxy-11-isobutyl-6,14-bis(trifluoromethyl)-18-oxa-3,4,11,17-tetrazatricyclo [11.3.1.12,5] octadeca-1(17),2,4,13,15-pentaen-12-one], the EC50 is less than 0.5 µM.

Consider `CC(C)CN1CCCCC(O)(C(F)(F)F)C2=NN=C(O2)c2nc(c(C(F)(F)F)cc2N)C1=O` (single isomer, unassigned) [Compound 233, 16-amino-6-hydroxy-11-isobutyl-6,14-bis(trifluoromethyl)-18-oxa-3,4,11,17-tetrazatricyclo [11.3.1.12,5] octadeca-1(17),2,4,13,15-pentaen-12-one], for which the concentration for a half-maximal effect (EC50) is less than 0.5 µM.

Consider `Nc1cc(C(F)(F)F)c2nc1-c1nnc(o1)C(O)(C(F)(F)F)CCCCN(Cc1ccc(OC(F)(F)F)cc1)C2=O` (single isomer, unassigned) [Compound 234, 16-amino-6-hydroxy-11-[[4-(trifluoromethoxy)phenyl]methyl]-6,14-bis(trifluoromethyl)-18-oxa-3,4,11,17-tetrazatricyclo [11.3.1.12,5] octadeca-1(17),2,4,13,15-pentaen-12-one], for which the EC50 was less than 0.5 µM.

With `Nc1cc(C(F)(F)F)c2nc1-c1nnc(o1)C(O)(C(F)(F)F)CCCCN(Cc1ccc(OC(F)(F)F)cc1)C2=O` (single isomer, unassigned) [Compound 235, 16-amino-6-hydroxy-11-[[4-(trifluoromethoxy)phenyl]methyl]-6,14-bis(trifluoromethyl)-18-oxa-3,4,11,17-tetrazatricyclo [11.3.1.12,5] octadeca-1(17),2,4,13,15-pentaen-12-one], the EC50 was less than 0.5 µM.

For the compound `Nc1cc(C(F)(F)F)c2nc1-c1nnc(o1)C(O)(C(F)(F)F)CCCCCN(Cc1ccc(Br)cc1)C2=O` (single isomer, unassigned) [Compound 236, 17-amino-12-[(4-bromophenyl)methyl]-6-hydroxy-6,15-bis(trifluoromethyl)-19-oxa-3,4,12,18-tetrazatricyclo [12.3.1.12,5] nonadeca-1(18),2,4,14,16-pentaen-13-one], the EC50 is less than 0.5 µM.

As to `Nc1cc(C(F)(F)F)c2nc1-c1nnc(o1)C(O)(C(F)(F)F)CCCCN(Cc1ccccc1)C2=O` (single isomer, unassigned) [Compound 238, 16-amino-11-benzyl-6-hydroxy-6,14-bis(trifluoromethyl)-18-oxa-3,4,11,17-tetrazatricyclo [11.3.1.12,5] octadeca-1(17),2,4,13,15-pentaen-12-one], the EC50 is less than 0.5 µM.

Regarding `Nc1cc(C(F)(F)F)c2nc1-c1nnc(o1)C(O)(C(F)(F)F)CCCCN(Cc1ccccc1)C2=O` (single isomer, unassigned) [Compound 239, 16-amino-11-benzyl-6-hydroxy-6,14-bis(trifluoromethyl)-18-oxa-3,4,11,17-tetrazatricyclo [11.3.1.12,5] octadeca-1(17),2,4,13,15-pentaen-12-one], the EC50 was less than 0.5 µM.

Regarding `Nc1cc(C(F)(F)F)c2nc1-c1nnc(o1)C(O)(C(F)(F)F)CCCCNC2=O` (single isomer, unassigned) [Compound 249, 16-amino-6-hydroxy-6,14-bis(trifluoromethyl)-18-oxa-3,4,11,17-tetrazatricyclo [11.3.1.12,5] octadeca-1(17),2,4,13,15-pentaen-12-one], the EC50 was less than 0.5 µM.

As for `Nc1cc(C(F)(F)F)c2nc1-c1nnc(o1)C(O)(C(F)(F)F)CCCCNC2=O` (single isomer, unassigned) [Compound 250, 16-amino-6-hydroxy-6,14-bis(trifluoromethyl)-18-oxa-3,4,11,17-tetrazatricyclo [11.3.1.12,5] octadeca-1(17),2,4,13,15-pentaen-12-one], the 50% effective concentration (EC50) was greater than 1 µM.

For `Nc1cc(C(F)(F)F)c2nc1-c1nnc(o1)[C@@](O)(C(F)(F)F)CCCCCCC2=O` [Compound 6, (6R)-17-amino-6-hydroxy-6,15-bis(trifluoromethyl)-19-oxa-3,4,18-triazatricyclo[12.3.1.12,5]nonadeca-1(18),2,4,14,16-pentaen-13-one], the EC50 was less than 0.5 µM.

With `Cn1cc2c(n1)-c1nc(c(N)cc1C(F)(F)F)-c1nnc(o1)C(O)(C(F)(F)F)CCCCC2` (stereo not drawn) [Compound 24, 20-Amino-14-methyl-6,18-bis(trifluoromethyl)-22-oxa-3,4,14,15,21-pentaazatetracyclo[15.3.1.12,5.012,16]docosa-1(21),2,4,12,15,17,19-heptaen-6-ol], the EC50 is greater than 1 µM.

With `Nc1cc(C(F)(F)F)c2nc1-c1nnc(o1)[C@@](O)(C(F)(F)F)CCCC(F)(F)CCC2=O` [Compound 38, (6R)-17-amino-10,10-difluoro-6-hydroxy-6,15-bis(trifluoromethyl)-19-oxa-3,4,18-triazatricyclo[12.3.1.12,5]nonadeca-1(18),2,4,14,16-pentaen-13-one], the EC50 is less than 0.5 µM.

Turning to `Nc1cc(C(F)(F)F)c2nc1-c1nnc(o1)[C@](O)(C(F)(F)F)CCCC(F)(F)CCC2=O` [Compound 39, (6S)-17-amino-10,10-difluoro-6-hydroxy-6,15-bis(trifluoromethyl)-19-oxa-3,4,18-triazatricyclo[12.3.1.12,5]nonadeca-1(18),2,4,14,16-pentaen-13-one], the EC50 fell in the range of 0.5 to 1 µM.

Take `Nc1cc(C(F)(F)F)c2nc1-c1nnc(o1)[C@@](O)(C(F)(F)F)CCC(F)(F)CCCC2=O` [Compound 40, (6R)-17-amino-9,9-difluoro-6-hydroxy-6,15-bis(trifluoromethyl)-19-oxa-3,4,18-triazatricyclo[12.3.1.12,5]nonadeca-1(18),2,4,14,16-pentaen-13-one]: the EC50 is less than 0.5 µM.

For the compound `Nc1cc(C(F)(F)F)c2nc1-c1nnc(o1)[C@](O)(C(F)(F)F)CCC(F)(F)CCCC2=O` [Compound 41, (6S)-17-amino-9,9-difluoro-6-hydroxy-6,15-bis(trifluoromethyl)-19-oxa-3,4,18-triazatricyclo[12.3.1.12,5]nonadeca-1(18),2,4,14,16-pentaen-13-one], the EC50 was less than 0.5 µM.

`Nc1cc(C(F)(F)F)c2nc1-c1nnc(o1)[C@@](O)(C(F)(F)F)CCCC(=O)CCC2(F)F` [Compound 42, (6R)-17-Amino-13,13-difluoro-6-hydroxy-6,15-bis(trifluoromethyl)-19-oxa-3,4,18-triazatricyclo[12.3.1.12,5]nonadeca-1(18),2,4,14,16-pentaen-10-one]: the EC50 is less than 0.5 µM.

With `Nc1cc(C(F)(F)F)c2nc1-c1nnc(o1)[C@@](O)(C(F)(F)F)CCC(=O)CCCC2(F)F` [Compound 43, (6R)-17-amino-13,13-difluoro-6-hydroxy-6,15-bis(trifluoromethyl)-19-oxa-3,4,18-triazatricyclo[12.3.1.12,5]nonadeca-1(18),2,4,14,16-pentaen-9-one], the EC50 was less than 0.5 µM.

With `Nc1cc(C(F)(F)F)c2nc1-c1nnc(o1)[C@@](O)(C(F)(F)F)CC(F)(F)CCCCC2=O` [Compound 44, (6R)-17-amino-8,8-difluoro-6-hydroxy-6,15-bis(trifluoromethyl)-19-oxa-3,4,18-triazatricyclo[12.3.1.12,5]nonadeca-1(18),2,4,14,16-pentaen-13-one], the EC50 is less than 0.5 µM.

As for `CC1(C)CCCCC[C@](O)(C(F)(F)F)C2=NN=C(O2)c2nc(c(C(F)(F)F)cc2N)C1=O` [Compound 45, (6R)-17-amino-6-hydroxy-12,12-dimethyl-6,15-bis(trifluoromethyl)-19-oxa-3,4,18-triazatricyclo[12.3.1.12,5]nonadeca-1(18),2,4,14,16-pentaen-13-one], the EC50 was less than 0.5 µM.

As to `CC1(C)CCCCC[C@@](O)(C(F)(F)F)C2=NN=C(O2)c2nc(c(C(F)(F)F)cc2N)C1=O` [Compound 46, (6S)-17-amino-6-hydroxy-12,12-dimethyl-6,15-bis(trifluoromethyl)-19-oxa-3,4,18-triazatricyclo[12.3.1.12,5]nonadeca-1(18),2,4,14,16-pentaen-13-one], the EC50 is less than 0.5 µM.
